Reference: patent US8653099B2, “Cold menthol receptor antagonists” (Janssen Pharmaceutica, priority 2008, dated 2014)
Several values for one entry are separate records, joined by “and”; a condition that tells them apart may be missing. Identical values can stand only once.

What was measured:
canine TRPM8 = molecular target: T1, canine TRPM8 (Canis lupus familiaris, UniProt Q1A7N1); experiment: In vitro canine TRPM8 functional assay (icilin-induced Ca2+ fluorescence, FLIPR/FDSS); assay type: cell-based; conditions: for inhibition at 0.5 µM: HEK293, 0.5 μM compound; for IC50: HEK293 cells stably expressing canine TRPM8, icilin at approx. 80% maximal response, eight-point dose-response; for inhibition at 1 µM: HEK293, 1 μM compound; for inhibition at 0.2 µM: HEK293, 0.2 μM compound
T1 construct: expressed in transfected cells
T1 sequence (Q1A7N1 1-1104): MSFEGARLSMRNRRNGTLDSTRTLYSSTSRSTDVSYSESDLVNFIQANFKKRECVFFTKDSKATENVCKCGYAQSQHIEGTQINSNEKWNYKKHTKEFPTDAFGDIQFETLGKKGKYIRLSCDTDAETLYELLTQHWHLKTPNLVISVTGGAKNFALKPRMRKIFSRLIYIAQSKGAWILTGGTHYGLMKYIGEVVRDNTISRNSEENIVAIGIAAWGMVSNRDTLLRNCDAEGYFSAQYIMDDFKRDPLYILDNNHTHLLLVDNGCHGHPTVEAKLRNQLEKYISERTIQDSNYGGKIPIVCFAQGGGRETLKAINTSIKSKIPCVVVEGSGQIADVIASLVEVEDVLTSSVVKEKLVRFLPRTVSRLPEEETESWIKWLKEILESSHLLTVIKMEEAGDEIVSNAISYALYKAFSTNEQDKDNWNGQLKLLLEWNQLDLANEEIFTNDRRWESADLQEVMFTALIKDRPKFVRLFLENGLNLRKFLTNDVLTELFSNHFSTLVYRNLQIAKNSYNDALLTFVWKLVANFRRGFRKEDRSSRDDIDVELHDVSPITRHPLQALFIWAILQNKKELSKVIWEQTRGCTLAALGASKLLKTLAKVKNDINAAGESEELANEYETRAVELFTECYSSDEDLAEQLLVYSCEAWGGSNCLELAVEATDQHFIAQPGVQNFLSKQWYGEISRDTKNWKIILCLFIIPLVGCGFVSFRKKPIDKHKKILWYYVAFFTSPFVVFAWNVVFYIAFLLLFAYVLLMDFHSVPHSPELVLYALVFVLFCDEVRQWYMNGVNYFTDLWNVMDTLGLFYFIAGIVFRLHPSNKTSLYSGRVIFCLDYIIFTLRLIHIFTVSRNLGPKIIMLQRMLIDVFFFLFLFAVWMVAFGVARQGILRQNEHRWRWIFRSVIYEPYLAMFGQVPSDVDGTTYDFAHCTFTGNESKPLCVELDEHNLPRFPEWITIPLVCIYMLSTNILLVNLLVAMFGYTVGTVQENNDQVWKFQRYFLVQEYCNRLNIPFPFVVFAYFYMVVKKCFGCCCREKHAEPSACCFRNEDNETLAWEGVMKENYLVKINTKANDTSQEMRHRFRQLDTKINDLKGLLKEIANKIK
Description: The functional activity of compounds of the formula (I) was determined by measuring changes in intracellular calcium concentration using a Ca^2+-sensitive fluorescent dye. The changes in fluorescent signal were monitored by a fluorescence plate reader, either a FLIPR™ (Molecular Devices) or FDSS (Hamamatsu).
HEK293 cells stably expressing canine TRPM8 were routinely grown as monolayers in Dulbecco's minimum essential medium supplemented with 10% FBS, 2 mM L-glutamine, 100 units/mL penicillin, 100 ug/mL streptomycin and 400 μg/mL G418. Cells were maintained in 5% CO2 at 37° C. At 24 hrs prior to assay, cells were seeded in black wall, clear-base poly-D-lysine coated 384-well plates (BD Biosciences, NJ, USA) at a density of 5,000 cells per well in culture medium and grown overnight in 5% CO2 at 37° C. On assay day, growth media was removed and cells were loaded with Calcium 3 Dye (Molecular Devices) for 35 min at 37° C., under 5% CO2 and then for 25 min at room temperature and atmosphere. Subsequently, cells were tested for agonist-induced increases in intracellular Ca^2+ levels using FLIPR™ or FDSS. Cells were challenged with compounds of the formula (I) (at varying concentrations) and intracellular Ca^2+ was measured for 5 min prior to the addition of icilin to all wells to achieve a final concentration that produces approximately an 80% maximal response.
Maximal fluorescence intensity (FI) achieved upon addition of icilin was exported from the FLIPR or FDSS software and further analyzed using GraphPad Prism 3.02 (Graph Pad Software Inc., CA, U.S.A.). Basal FI was subtracted prior to normalizing data to percent of maximal response. Curves were generated using the average of quadruplicate wells for each data point, were analyzed using nonlinear regression of either sigmoidal dose response or sigmoidal dose response (variable slope). Finally, the EC50 and IC50 values were calculated with the best-fit dose curve determined by GraphPad Prism.

Sprague-Dawley rats = experiment: CFA-induced paw radiant heat hypersensitivity; assay type: in vivo; conditions: rat, 30 mg/kg PO, 24 h after intraplantar CFA, radiant heat withdrawal latency
Description: Intraplantar injection of complete Freund's adjuvant (CFA) in rodents results in a long-lasting inflammatory reaction, characterized by a pronounced hypersensitivity to both thermal and mechanical stimuli. This hypersensitivity peaks between 24-72 hours following injection and can last for several weeks. To assess whether test compounds of the formula (I) reverse established hypersensitivity, a 100 μL intraplantar injection of CFA (suspended in a 1:1 emulsion of saline and heat-killed Mycobacterium tuberculosis in mineral oil) can be injected into a single hind paw of Sprague-Dawley rats (typically males ranging from 150-350 g). […]
Each rat is placed in a test chamber on a warm glass surface and allowed to acclimate for approximately 10 minutes. […] An initial (baseline) response latency to the thermal stimulus is recorded for each animal prior to the injection of CFA. Twenty-four hours following intraplantar CFA injection, the response latency of the animal to the thermal stimulus is then re-evaluated and compared to the animal's baseline response time. […] Post-compound treatment withdrawal latencies are assessed at fixed time intervals, typically 30, 60 and 120 minutes. The percent reversal (% R) of hypersenstivitiy is calculated according to the following formula: % Reversal=(Treatment Response−CFA Response)/(Baseline Response−CFA Response)×100.

[1] = HEK293 canine TRPM8, icilin challenge

| SMILES | inhibition at 0.5 µM (canine TRPM8; [1]) [%] | IC50 (canine TRPM8) | other results |
| --- | --- | --- | --- |
| O=C(Nc1cccc2cnccc12)C(Nc1ccccc1)c1ccc(C(F)(F)F)cc1 (single isomer, unassigned) [Cpd 30, N-Isoquinolin-5-yl-2-phenylamino-2-(4-trifluoromethyl-phenyl)-acetamide] | 96 | 257 nM | – |
| O=C(Nc1cccc2cnccc12)C(Nc1ccccc1)c1ccc(C(F)(F)F)cc1 (single isomer, unassigned) [Cpd 31, N-Isoquinolin-5-yl-2-phenylamino-2-(4-trifluoromethyl-phenyl)-acetamide] | – | 17 nM | % Inh @ 0.5 μM (canine TRPM8; 0.5 μM compound, HEK293 canine TRPM8, icilin challenge, 0.5 µM): 102.16% |
| CC(C)(C)c1ccc(C(Nc2ccccc2)C(=O)Nc2cccc3cnccc23)cc1 (stereo not shown) [Cpd 1] | – | 35.8 nM | inhibition at 1 µM (canine TRPM8; [1]): 103% |
| CN(c1ccccc1)C(C(=O)Nc1cccc2cnccc12)c1ccc(C(C)(C)C)cc1 (stereo not shown) [Cpd 3] | – | 301 nM | inhibition at 1 µM (canine TRPM8; [1]): 101% |
| O=C(Nc1cccc2cnccc12)C(Nc1ccccc1)c1ccc(C(F)(F)F)cc1 (stereo not shown) [Cpd 4, N-Isoquinolin-5-yl-2-phenylamino-2-(4-trifluoromethyl-phenyl)-acetamide] | 104 | 72 nM and 28.9 nM | inhibition at 1 µM (canine TRPM8; [1]): 102% |
| CC(C)(C)c1ccc(C(Nc2ccccc2)C(=O)Nc2cccc3[nH]ncc23)cc1 (stereo not shown) [Cpd 5] | – | 118 nM | inhibition at 1 µM (canine TRPM8; [1]): 100% |
| CC(C)(C)c1ccc(C(Nc2ccccc2)C(=O)Nc2cccc3[nH]ccc23)cc1 (stereo not shown) [Cpd 7] | – | 529 nM | inhibition at 1 µM (canine TRPM8; [1]): 100% |
| CC(C)(C)c1ccc(C(Nc2ccccc2)C(=O)Nc2ccc3cnccc3c2)cc1 (stereo not shown) [Cpd 8] | – | 438 nM | inhibition at 1 µM (canine TRPM8; [1]): 97.5% |
| O=C(NC1CCc2ccccc21)C(Nc1ccccc1)c1ccc(C(F)(F)F)cc1 (stereo not shown) [Cpd 10, N-Indan-1-yl-2-phenylamino-2-(4-trifluoromethyl-phenyl)-acetamide] | – | 158 nM | inhibition at 1 µM (canine TRPM8; [1]): 100% |
| O=C(Nc1cccc2cnccc12)C(Nc1ccccc1Cl)c1ccc(C(F)(F)F)cc1 (stereo not shown) [Cpd 11] | 104 | 89.1 nM | – |
| O=C(Nc1cccc2cnccc12)C(Nc1cccc(Cl)c1)c1ccc(C(F)(F)F)cc1 (stereo not shown) [Cpd 12] | 101 | 261 nM | – |
| O=C(Nc1cccc2cnccc12)C(Nc1ccc(Cl)cc1)c1ccc(C(F)(F)F)cc1 (stereo not shown) [Cpd 13] | 86.9 | 489 nM | – |
| O=C(Nc1cccc2cnccc12)C(c1ccc(C(F)(F)F)cc1)N1CCc2ccccc21 (stereo not shown) [Cpd 18, 2-(Indolin-1-yl)-N-(isoquinolin-5-yl)-2-(4-(trifluoromethyl)phenyl)acetamide] | 104 | 103 nM | – |
| O=C(Nc1cccc2cnccc12)C(c1ccc(C(F)(F)F)cc1)N1CCCc2ccccc21 (stereo not shown) [Cpd 19] | 79.7 | 586 nM | – |
| CC(C)(C)c1ccc(C(Nc2ccccc2)C(=O)Nc2cccc3cn[nH]c23)cc1 (stereo not shown) [Cpd 20] | 101 | 233 nM | – |
| COc1ccccc1NC(C(=O)Nc1cccc2cnccc12)c1ccc(C(F)(F)F)cc1 (stereo not shown) [Cpd 21] | 95.3 | 287 nM | – |
| Cc1ccccc1NC(C(=O)Nc1cccc2cnccc12)c1ccc(C(F)(F)F)cc1 (stereo not shown) [Cpd 22] | 104 | 38.4 nM | – |
| O=C(Nc1cccc2cnccc12)C(Nc1ccccc1F)c1ccc(C(F)(F)F)cc1 (stereo not shown) [Cpd 24, 2-(2-Fluorophenylamino)-N-(isoquinolin-5-yl)-2-(4-(trifluoromethyl)phenyl)acetamide] | 104 | 54.9 nM and 44.3 nM | % Reversal @ 2 h (Sprague-Dawley rats): 28% |
| Cc1cccc(C)c1NC(C(=O)Nc1cccc2cnccc12)c1ccc(C(F)(F)F)cc1 (stereo not shown) [Cpd 25] | 99 | 273 nM | – |
| O=C(Nc1cccc2[nH]ncc12)C(Nc1ccccc1)c1ccc(C(F)(F)F)cc1 (stereo not shown) [Cpd 27] | 101 | 84.5 nM | – |

| SMILES | inhibition at 0.5 µM (canine TRPM8; [1]) [%] | IC50 (canine TRPM8) | other results |
| --- | --- | --- | --- |
| O=C(Nc1cccc2cn[nH]c12)C(Nc1ccccc1)c1ccc(C(F)(F)F)cc1 (stereo not shown) [Cpd 28] | 98.3 | 161 nM | – |
| O=C(Nc1cccc2cccnc12)C(Nc1ccccc1)c1ccc(C(F)(F)F)cc1 (stereo not shown) [Cpd 29] | 85.1 | 441 nM | – |
| O=C(Nc1cccc2[nH]ccc12)C(Nc1ccc(F)cc1)c1ccc(C(F)(F)F)cc1 (stereo not shown) [Cpd 34] | 84 | 226 nM | – |
| O=C(Nc1cccc2cnccc12)C(Nc1ccc(F)cc1)c1ccc(C(F)(F)F)cc1 (stereo not shown) [Cpd 35] | 99 | 73 nM | – |
| O=C(Nc1cccc2cnccc12)C(Nc1cccc(F)c1)c1ccc(C(F)(F)F)cc1 (stereo not shown) [Cpd 36] | 95 | 119 nM | – |
| O=C(Nc1cccc2[nH]ccc12)C(Nc1cccc(F)c1)c1ccc(C(F)(F)F)cc1 (stereo not shown) [Cpd 37] | 94 | 217 nM | – |
| O=C(Nc1cccc2[nH]ccc12)C(Nc1ccccc1)c1ccc(Cl)cc1 (stereo not shown) [Cpd 38] | 84 | 181 nM | – |
| O=C(Nc1cccc2cnccc12)C(Nc1ccccc1)c1ccc(Cl)cc1 (stereo not shown) [Cpd 39] | 93 | 158 nM | – |
| O=C(Nc1cccc2cnccc12)C(Nc1ccccc1F)c1ccc(Br)cc1 (stereo not shown) [Cpd 41] | 98 | 82 nM | – |
| O=C(Nc1cccc2cnccc12)C(Nc1ccccc1)c1cccc(C(F)(F)F)c1 (stereo not shown) [Cpd 42] | 96 | 109 nM | – |
| O=C(Nc1cccc2cnccc12)C(Nc1ccccc1F)c1ccc(Cl)cc1 (stereo not shown) [Cpd 44] | 98 | 96.8 nM | – |
| O=C(Nc1cccc2cnccc12)C(Nc1c(F)cccc1F)c1ccc(Cl)cc1 (stereo not shown) [Cpd 48] | 98 | 94 nM | – |
| O=C(Nc1cccc2ncccc12)C(Nc1c(F)cccc1F)c1ccc(Cl)cc1 (stereo not shown) [Cpd 49] | 83 | 92 nM | – |
| O=C(Nc1cccc2cnccc12)C(Nc1ccc(F)cc1F)c1ccc(C(F)(F)F)cc1 (stereo not shown) [Cpd 50] | 98 | 115 nM | – |
| O=C(Nc1cccc2cnccc12)C(Nc1cccc(F)c1F)c1ccc(Cl)cc1 (stereo not shown) [Cpd 51] | 87 | 273 nM | – |
| O=C(Nc1cccc2ncccc12)C(Nc1cccc(F)c1F)c1ccc(Cl)cc1 (stereo not shown) [Cpd 52] | 80 | 219 nM | – |
| O=C(Nc1cccc2cnccc12)C(Nc1cc(F)ccc1F)c1ccc(Cl)cc1 (stereo not shown) [Cpd 53] | – | 65.3 nM | inhibition at 0.2 µM (canine TRPM8; [1]): 90% |
| O=C(Nc1cccc2ncccc12)C(Nc1cc(F)ccc1F)c1ccc(Cl)cc1 (stereo not shown) [Cpd 54] | – | 107 nM | inhibition at 0.2 µM (canine TRPM8; [1]): 77% |
| O=C(Nc1cccc2cnccc12)C(Sc1ccccc1)c1ccc(C(F)(F)F)cc1 (stereo not shown) [Cpd 56, N-(Isoquinolin-5-yl)-2-(phenylthio)-2-(4-(trifluoromethyl)phenyl)acetamide] | – | 130 nM | – |
